Data from US10766857B2, “Compound having BLT inhibitory activity and composition, for preventing or treating inflammatory diseases, comprising same as active ingredient” (DONGGUK UNIVERSITY INDUSTRY-ACADEMIC COOPERATION FOUNDATION, priority 2015, dated 2020).

How the values were obtained:
[1] = target: T1, BLT2-expressing cells (CHO-BLT2 cells) (Homo sapiens, UniProt Q9NPC1); experiment: MTT cell growth of LTB4-stimulated BLT2-expressing cells; assay type: cell-based; conditions: pre-treated at 10 μM, LTB4 300 nM
T1 construct: HA; expressed in transfected cells
T1 sequence (Q9NPC1 with tags, fused parts or gaps): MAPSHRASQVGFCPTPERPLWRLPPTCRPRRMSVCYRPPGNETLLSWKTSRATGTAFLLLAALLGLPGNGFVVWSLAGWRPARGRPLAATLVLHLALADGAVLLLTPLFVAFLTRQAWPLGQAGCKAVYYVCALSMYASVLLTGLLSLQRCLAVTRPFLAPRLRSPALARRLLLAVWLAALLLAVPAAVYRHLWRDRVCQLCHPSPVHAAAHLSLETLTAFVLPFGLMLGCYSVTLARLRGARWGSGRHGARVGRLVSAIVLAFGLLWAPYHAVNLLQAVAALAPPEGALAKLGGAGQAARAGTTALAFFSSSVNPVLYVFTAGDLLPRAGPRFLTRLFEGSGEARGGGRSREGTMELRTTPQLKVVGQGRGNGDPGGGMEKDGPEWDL
Protocol: Cell viability according to treatment of the compounds prepared in the examples were measured by a 3-(4,5-dimethylthiazol-2-yl)-2,5-diphenyltetrazolium bromide (MTT) method.
More specifically, 1×10^4 each of the BLT2-nonexpressing cells (CHO-pcDNA3.1 cells) and BLT2-expressing cells (CHO-BLT2 cells), which were prepared in Experimental Example 1, were dispensed in a […], and cultured for 24 hours. Afterward, the culture medium was removed, a serum-free RPMI medium was added, and after two hours, the cells were pre-treated with each of the compound prepared in one of the examples (10 μM), 10 μM DMSO (compound solvent) as a control, and 10 μM 1-[5-ethyl-2-hydroxy-4-[[6-methyl-6-(1H-tetrazol-5-yl)heptyl]oxy]phenyl]-ethanone (LY255283; Cayman) as a positive control for 1 hour. Subsequently, after treatment of LTB4 (300 nM), the cells were cultured for 24 hours. 20 μL of an MTT solution (5 mg/mL, Sigma-Aldrich) was added to each well, the cells were cultured in a humid CO2 incubator at 37° C. for 4 hours, a supernatant was removed, and 200 μL of DMSO was added to each well to dissolve insoluble violet formazan crystals. Absorbance was measured using a microplate reader (Molecular Devices, Sunnyvale, Calif.) at 550 nm, and the measurement was repeated three times.

BLT2 [2] = target: T2, BLT2 (Homo sapiens, UniProt Q9NPC1); experiment: LTB4-induced chemotactic motility, Transwell, CHO-BLT2 cells; assay type: cell-based; conditions: LTB4 300 nM
T2 construct: HA; expressed in transfected cells
T2 sequence (Q9NPC1 with tags, fused parts or gaps): T1 sequence (Q9NPC1 with tags, fused parts or gaps)
Protocol: Chemotactic motility was analyzed using a Transwell chamber including a polycarbonate filter (8-μm pore size, Corning Costar) with a 6.5-mm diameter. Specifically, the lower surface of the filter was coated with 10 μg/mL fibronectin in a serum-free RPMI 1640 medium at 37° C. for 1 hour. The experiment was performed by placing the filter dried and coated with RPMI 1640 media containing various amounts of LTB4 in the lower wells of the Transwell chamber, and loading CHO cells stably expressing BLT1 and BLT2 into the upper wells containing serum-free RPMI 1640 media finally at 2×10^4 cells/100 μL. To evaluate the effect of inhibitors, the cells were pre-treated with each inhibitor for 30 minutes before dispensing. After the cells were cultured at 37° C. in 5% CO2 for 3 hours, the filters were fixed with methanol for 3 minutes, and stained with hematoxylin and eosin for 10 minutes. In the experiment, the cells were BLT2-expressing cells (CHO-BLT2 cells) and BLT1-expressing cells (CHO-BLT1 cells), and LY255283 and U75302 were used as positive controls for each type of the cells, and BLT2 ligand LTB4, (300 nM), BLT1 ligand LTB4 (10 nM), and lysophosphatidic acid (LPA; 100 nM) were used as comparative controls. The chemotactic motility was quantitatively analyzed by counting the cells on the lower side of the filter under an optical microscope (magnification, 200×). For each analysis, 6 fields were subjected to counting, each sample was analyzed twice, and the analysis was repeated three times.

BLT2 [3] = target: T2, BLT2; experiment: [3H]LTB4 and BLT2 binding inhibition, CHO-BLT2 cell membrane proteins; conditions: [3H]LTB4 5 nM
Protocol: The inhibition of LTB4 and BLT2 binding (ligand binding affinity) was analyzed using radioactive tritium (^3H)-labeled LTB4 ([^3H]LTB4, ARC; specific activity 160.0 Ci/mmol). After 2×10^6 of CHO-BLT2 cells were plated into a 100-mm culture dish and cultured for 48 hours, an experimental method was carried out as follows: Collected cells were treated using a homogenizer a total of five times for 1 minute each to separate proteins of the cell membrane. Afterward, the cells were subjected to centrifugation at 4° C. and 45,000 rpm for 40 minutes to only collect the proteins of the cell membrane, and thereby, a protein concentration of 40 μg/45 μL was quantified. When a BLT2-containing cell membrane proteins which were quantified in the same manner was treated with the same amount of [^3H]LTB4 (5 nM), and then a different concentration (10^−9, 10^−8, 10^−7, 10^−6 or 10^−5 M) of a compound, a degree of inhibiting the tritium-labeled LTB4 and BLT2 binding was measured using a Hidex 300sL liquid scintillation counter.

MDA-MB-231 cells [4] = experiment: Intracellular ROS generation (DCF fluorescence); assay type: cell-based; conditions: 30 minutes treatment
Protocol: (§1) The breast cancer cells such as the MDA-MB-231 cells were obtained from Korean Cell Line Bank (Seoul, Korea), and the MDA-MB-435 cells were provided by J. H. Lee (Asan Medical Center, Seoul, Korea). These cells were cultured in an RPMI 1640 medium (Invitrogen) containing 10% FBS (Life Technologies, Inc.), 1% penicillin (50 units/mL), and an antibiotic antimycotic solution (Life Technologies, Inc.) at 37° C. under a 5% CO2 condition.
(§2) Intracellular ROS (H2O2) generated according to the treatment of the compound of the present invention (LMT-696) was measured as a function of DCF fluorescence. Specifically, before ROS measurement, 2×10^5 cells were grown in 60-mm wells, and cultured in a FBS-supplemented RPMI 1640 medium for 24 hours. To evaluate the effect of the compound of the present invention, the cells were treated with the compound (LMT-696) for 30 minutes. To measure the intracellular ROS, the cells were cultured with 20 μM of a H2O2-sensitive fluorescent material such as H2DCFDA [Molecular Probes (Eugene, Oreg.)] at 37° C. in a dark and humidified CO2 incubator for 20 minutes. […] A DCF fluorescent degree was measured with excitation and emission wavelengths at 488 and 530 nm, respectively, using a FACS Calibur flow cytometer (Becton Dickinson, N.J.).

MDA-MB-435 cells [5] = experiment: Intracellular ROS generation (DCF fluorescence); assay type: cell-based; conditions: 30 minutes treatment
Protocol: as §1, §2

MDA-MB-231 cells [6] = experiment: Matrigel invasion of breast cancer cells; assay type: cell-based
Protocol: as §1
(§3) To detect the invasion of breast cancer cells according to the treatment of the compound of the present invention, BioCoat Matrigel Invasion Chambers (BD Biosciences, Bedford, Mass.) were used. 5×10^4 of the breast cancer cells were harvested with trypsin-EDTA, resuspended in 0.5% serum-containing RPMI 1640, and transferred to Matrigel inserts. Five percent serum-containing RPMI 1640 was added to the lower chamber, and the cells were cultured at 37° C. for 36 hours. Each filter was fixed with methanol for 3 minutes, and stained with hematoxylin and eosin for 10 minutes. The invasiveness of the cancer cells was quantified by cell counts on the lower side of the filter under an optical microscope (magnification, 200×). In each analysis, 6 fields were quantified. Each sample was analyzed twice, and the analysis was repeated three times.

MDA-MB-435 cells [7] = experiment: Matrigel invasion of breast cancer cells; assay type: cell-based
Protocol: as §1, §3

SMILES: CCCCC(=O)N(CC#Cc1ccc(C(=O)N2CCN(C(C)C)CC2)cc1)c1ccccc1 [LMT-696, N-(3-(4-(4-isopropylpiperazine-1-carbonyl)phenyl)prop-2-ynyl)-N-phenylpentaneamide]
- cell growth compared with the control DMSO [1]: 56.6%
- inhibition at 10 µM (BLT2 [2]; 10 μM pre-treatment, read-out: chemotactic motility inhibited compared with LTB4 (DMSO+)): 70.3%
- IC50 (BLT2 [2]; serum-free, read-out: IC50 of chemotactic motility inhibition): 2 µM
- IC50 (BLT2 [3]): 0.0056 µM
- inhibition of ROS generation (MDA-MB-231 cells [4]): significant inhibition
- inhibition of ROS generation (MDA-MB-435 cells [5]): significant inhibition
- cancer cell invasion inhibited (MDA-MB-231 cells [6]): 70%
- cancer cell invasion inhibited (MDA-MB-435 cells [7]): 56%
